Patent US6911468B2, “Tyrosine phosphatase inhibitors” (Takeda Chemical Industries, Ltd., priority 2000, dated 2005)

Tested on: not given
Assay: not given
Conditions: not given

Row | melting point [°C] | SMILES
1 | > 300 | O=C(O)/C=C/c1ccc(-c2cccn2-c2ccc(/C=C/C(=O)O)cc2)cc1 [Example 12, (E)-3-[4-(1-{4-[(E)-3-Hydroxy-3-oxo-1-propenyl]phenyl}-1H-pyrrol-2-yl)phenyl]-2-propenoic acid]
2 | 132 to 133 | CCCCCCCCCCNC(=O)c1cc(-c2ccc(O[C@H](Cc3ccccc3)C(=O)O)cc2)n(CCc2ccc(Br)cc2)c1C [Example 118, (2R)-2-{4-[1-(4-Bromophenethyl)-4-(decylaminocarbonyl)-5-methyl-1H-pyrrol-2-yl]phenoxy}-3-phenylpropanoic acid]

Biological target: T1, PTP1B (Homo sapiens, UniProt P18031)
T1 construct: in order to express 1-321 amino acid region encoding enzyme active domain of PTP1B; made in house; host or cells: E. coli BL21 DE3 pLysS
T1 sequence (P18031 1-321): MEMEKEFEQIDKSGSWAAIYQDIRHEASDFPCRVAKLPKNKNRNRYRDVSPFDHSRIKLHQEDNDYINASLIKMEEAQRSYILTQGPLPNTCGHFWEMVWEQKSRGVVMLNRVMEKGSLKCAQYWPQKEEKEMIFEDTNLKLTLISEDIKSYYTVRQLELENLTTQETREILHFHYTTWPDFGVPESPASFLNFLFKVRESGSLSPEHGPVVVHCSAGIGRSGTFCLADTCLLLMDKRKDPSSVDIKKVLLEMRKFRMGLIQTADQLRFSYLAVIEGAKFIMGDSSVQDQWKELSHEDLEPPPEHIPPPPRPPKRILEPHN
Assay: Measurement of PTP1B Inhibitory Activity (dephosphorylation of p-nitrophenylphosphate, absorbance at 405 nm)
Format: biochemical
Conditions: PTP1B enzyme active domain (1-321 amino acid, 6 histidine residues at C-terminal), pNPP substrate, pH 6.5, 37° C. for 1 hour
Procedure: Based on the sequence of human PTP-1B registered in Genbank (M31724) database, primer 1 and primer 2 were synthesized, and PTP1B cDNA was amplified from human skeletal muscle cDNA library (Clonetech, Inc. HL5002a) according to PCR method using these primers. The cycle of reactions at 98° C. for 10 seconds, at 58° C. for 30 seconds and at 72° C. for 90 seconds was repeated 35 cycles. The PCR reaction product (1322 bp) was cloned to pT7 Blue-T vector (Novagen, Inc.) to identify the base sequence.
Human PTP 1B cDNA (1322 bp) (100 ng) was amplified with primer 3 and primer 4 in order to express 1-321 amino acid region encoding enzyme active domain of PTP1B. The PCR reaction product (976 bp) was cloned to pT7 Blue-T vector (Novagen, Inc.) to identify the base sequence.
The pT7 Blue-T vector-human PTP1B cDNA (976 bp) was cleaved with restriction enzymes NdeI and SalI (Takara Shuzo Co., Ltd.) and subjected to electrophoresis using 0.7% agarose gel, and a 969 bp fragment was excised and purified. The fragment was introduced into pET32a (+) vector (Novagen, Inc.) cleaved with restriction enzymes NdeI and XhoI (Takara Shuzo Co., Ltd.), to constitute a vector pET32a (+)-human PTP1B cDNA (969 bp), which expresses PTP1B (321 amino acid) with 6 histidine residues binded to a C-terminal thereof under a control of T7 lac promotor.
E.coli BL21 DE3 pLysS (Novagen, Inc.) was transformed with the pET32a (+)-human PTP 1B cDNA (969 bp) to give an ampicillin (50 μg/ml) resistant bacterium. This was shake cultured at 37° C. using 5L of 2xYT medium (ampicillin (50 μg/ml)). When OD600nm reached to 0.5, IPTG (Isopropyl b-D-Thiogalactoside) was added to the culture medium so as to be 1 mM in order to induce the expression of protein, and this medium was further cultured at 37° C. overnight. The bacterium was collected by centrifugation (8000 rpm, 10 minutes, 4° C.).
The bacterium was suspended in lysis buffer (50 ml) (20 mM Tris HCl (pH 8.0), 0.5 M NaCl, 1 mM PMSF, 5 mM benzamidine, Lysozyme 5 mg) and crushed by sonication. To the supernatant after centrifuging (12000 rpm, 10 minutes, 4° C.) was added imidazole so as to be 50 mM and the mixture was mixed with His Bind resin (Novagen, Inc.) binded with Ni ion (4° C., overnight). The mixture was washed with 200 ml of (20 mM Tris HCl (pH 8.0), 0.5 M NaCl, 1 mM PMSF, 5 mM benzamidine, 50 mM imidazole), eluted with (20 mM Tris HCl (pH 8.0), 0.5 M NaCl, 1 mM PMSF, 5 mM benzamidine, 400 mM imidazole) and concentrated by centrifugation using Ultrafree-15 Biomax-50 (MILLIPORE Corp.) (11 mg/ml, 4ml). The purified protein (PTP1B) was identified by Western blotting method using SDS-PAGE, coomassie Blue stain and anti-PTP1B antibody (UBI Inc.).
The PTP1B inhibitory activity of the test compound was evaluated by measuring the ability of the test compound to dephosphorylate p-nitrophenylphosphate (pNPP) (a change of the absorbance at 405 nm).
To a buffer for measurement of the activity (0.1 M sodium acetate (pH 6.5), 1 mM EDTA, 10 mM DTT) (10 ml) was added PTP1B enzyme solution (2 μl) and the mixture was added to each well of a 96-well microtiter plate (100 μl each). A solution of the test compound in DMSO (10 μl) and 2 mM pNPP/the buffer for measurement of the activity (90 μl) were then added to each well, and the absorbance at 405 nm was measured. After keeping at 37° C. for 1 hour, the absorbance was measured again to evaluate a change of the absorbance. Regarding the change of the absorbance in the absence of the test compound as 100%, the concentration of the compound necessary for 50% inhibition (IC50 value) was calculated.

Row | IC50 [nM] | SMILES
3 | 3100 | O=C(O)/C=C/c1ccc(-c2cccn2-c2ccc(/C=C/C(=O)O)cc2)cc1 [Example 12, (E)-3-[4-(1-{4-[(E)-3-Hydroxy-3-oxo-1-propenyl]phenyl}-1H-pyrrol-2-yl)phenyl]-2-propenoic acid]
4 | 310 | Cc1ccc(-c2ccc(O[C@H](Cc3ccccc3)C(=O)O)cc2)n1Cc1cccc(Oc2ccccc2)c1 [Example 54, (2R)-2-{4-[1-(3-phenoxybenzyl)-5-methyl-1H-pyrrol-2-yl]phenoxy}-3-phenylpropanoic acid]
5 | 130 | CCCCCCCCCCCCn1c(C)ccc1-c1ccc(O[C@H](Cc2ccccc2)C(=O)O)cc1 [Example 56, (2R)-2-[4-(1-Dodecyl-5-methyl-1H-pyrrol-2-yl)phenoxy]-3-phenylpropanoic acid]
6 | 340 | CCCCCCCCn1c(C)ccc1-c1ccc(O[C@H](Cc2ccccc2)C(=O)O)cc1 [Example 58, (2R)-2-[4-(5-Methyl-1-octyl-1H-pyrrol-2-yl)phenoxy]-3-phenylpropanoic acid]
7 | 360 | CCCCCCCCCn1c(C)ccc1-c1ccc(O[C@H](Cc2ccccc2)C(=O)O)cc1 [Example 60, (2R)-2-[4-(5-Methyl-1-nonyl-1H-pyrrol-2-yl)phenoxy]-3-phenylpropanoic acid]
8 | 210 | CCCCCCCCCCn1c(C)ccc1-c1ccc(O[C@H](Cc2ccccc2)C(=O)O)cc1 [Example 62, (2R)-2-[4-(1-Decyl-5-methyl-1H-pyrrol-2-yl)phenoxy]-3-phenylpropanoic acid]
9 | 230 | CCCCCCCCCCCn1c(C)ccc1-c1ccc(O[C@H](Cc2ccccc2)C(=O)O)cc1 [Example 64, (2R)-2-[4-(5-Methyl-1-undecyl-1H-pyrrol-2-yl)phenoxy]-3-phenylpropanoic acid]
10 | 170 | CCCCCCCCCCCCCn1c(C)ccc1-c1ccc(O[C@H](Cc2ccccc2)C(=O)O)cc1 [Example 66, (2R)-2-[4-(5-Methyl-1-tridecyl-1H-pyrrol-2-yl)phenoxy]-3-phenylpropanoic acid]
11 | 90 | CCCCCCCCc1ccc(-n2c(C)ccc2-c2ccc(O[C@H](Cc3ccccc3)C(=O)O)cc2)cc1 [Example 94, Sodium (2R)-2-([4-[1-(4-octylphenyl)-5-methyl-1H-pyrrol-2-yl]phenyl]oxy)-3-phenylpropanoate]
